The source made the active and inactive calls. The rule behind the calls is not given here.
Experiments:
[1] = (§1) Antifibrotic activity in rat 1097 cells assessed as inhibition of TGF-beta-stimulated [3H]proline incorporation in to collagen at 100 uM; format: functional
Rattus norvegicus [2] = species on record: Rattus norvegicus; experiment: as §1; format: functional
1097 [3] = experiment: Antifibrotic activity in rat 1097 cells assessed as necrotic cells at 30 uM; format: functional, cell-based
1097 [4] = experiment: Antifibrotic activity in rat 1097 cells assessed as necrotic cells at 100 uM; format: functional, cell-based
[5] = Antifibrotic activity in rat 1097 cells assessed as inhibition of TGF-beta-stimulated [3H]proline incorporation in to collagen at 30 uM; format: functional
Rattus norvegicus [6] = experiment: Reduction in albuminuria in STZ-induced Ren2 rat at 200 mg/kg/day after 24 hrs by radioimmunoassay; format: functional, organism-based
Rattus norvegicus [7] = experiment: Reduction in albuminuria in STZ-induced Ren2 rat at 400 mg/kg/day after 24 hrs by radioimmunoassay; format: functional, organism-based
[8] = Toxicity against rat 1097 cells at 100 uM; format: cell-based
[9] = Toxicity against rat 1097 cells at 30 uM; format: cell-based
Rattus norvegicus [10] = species on record: Rattus norvegicus; experiment: Antifibrotic activity in rat 1097 cells assessed as damaged cells at 100 uM; format: functional, cell-based
[11] = Antifibrotic activity in rat 1097 cells assessed as inhibition of TGF-beta-stimulated [3H]proline incorporation in to collagen at 10 uM; format: functional

COc1cc(/C=C/C(=O)Nc2ccccc2C(=O)O)ccc1O
inhibition at 100 µM [1]: 50%

O=C(/C=C/c1ccccc1)Nc1ccccc1C(=O)O
inhibition (Rattus norvegicus [2]): inactive

COc1cc(/C=C/C(=O)Nc2ccccc2C(=O)O)ccc1OC1CCCCC1
Activity 1097 [3]: Active
Activity 1097 [4]: Active

CC#CCOc1cc(/C=C/C(=O)Nc2ccccc2C(=O)O)ccc1OC
inhibition at 100 µM [1]: 80%
inhibition at 30 µM [5]: 75%

C#CCOc1ccc(/C=C/C(=O)Nc2ccccc2C(=O)O)cc1OC [ASENGEPRAST]
inhibition at 100 µM [1]: 80%
inhibition at 30 µM [5]: 55%
Activity (Rattus norvegicus [6]): Active
Activity (Rattus norvegicus [7]): Active

CCCCC#CCCOc1ccc(/C=C/C(=O)Nc2ccccc2C(=O)O)cc1OC
Activity 1097 [3]: Active

COc1ccc(/C=C/C(=O)Nc2ccccc2C(=O)O)cc1OC [TRANILAST]
inhibition at 100 µM [1]: 70%
inhibition at 30 µM [5]: 40%

C#CCCCOc1ccc(/C=C/C(=O)Nc2ccccc2C(=O)O)cc1OC
inhibition at 100 µM [1]: 100%
inhibition at 30 µM [5]: 75%

COc1cc(/C=C/C(=O)Nc2ccccc2C(=O)O)ccc1OC1CCCC1
inhibition at 30 µM [5]: 100%
Activity [8]: Toxic
Activity [9]: Non-toxic
Activity (Rattus norvegicus [10]): Active

COc1cc(/C=C/C(=O)Nc2ccccc2C(=O)O)ccc1OC1CCCCCCC1
Activity 1097 [3]: Active
Activity 1097 [4]: Active

CCC#CCCOc1ccc(/C=C/C(=O)Nc2ccccc2C(=O)O)cc1OC
inhibition at 30 µM [5]: 100%
Activity (Rattus norvegicus [10]): Active

COc1ccc(/C=C/C(=O)Nc2ccccc2C(=O)O)cc1
inhibition (Rattus norvegicus [2]): inactive

CCCCC#CCCOc1cc(/C=C/C(=O)Nc2ccccc2C(=O)O)ccc1OC
Activity 1097 [3]: Active
Activity 1097 [4]: Active

COc1ccc(/C=C/C(=O)Nc2ccccc2C(=O)O)cc1O
inhibition at 100 µM [1]: 50%

CC#CCOc1ccc(/C=C/C(=O)Nc2ccccc2C(=O)O)cc1OC
inhibition at 100 µM [1]: 90%
inhibition at 30 µM [5]: 65%

C#CCCCCOc1ccc(/C=C/C(=O)Nc2ccccc2C(=O)O)cc1OC
inhibition at 30 µM [5]: 80%
Activity (Rattus norvegicus [10]): Active

COc1ccc(CCC(=O)Nc2ccccc2C(=O)O)cc1OC
inhibition (Rattus norvegicus [2]): inactive

C#CCCOc1cc(/C=C/C(=O)Nc2ccccc2C(=O)O)ccc1OC
inhibition at 30 µM [5]: 65%
Activity (Rattus norvegicus [10]): Active

COc1cc(/C=C/C(=O)Nc2ccccc2C(=O)O)ccc1OC1CCCCCC1
Activity 1097 [3]: Active
Activity 1097 [4]: Active

CCC#CCOc1cc(/C=C/C(=O)Nc2ccccc2C(=O)O)ccc1OC
inhibition at 100 µM [1]: 100%
inhibition at 30 µM [5]: 90%
Activity [8]: Toxic
Activity [9]: Non-toxic

COc1cccc(/C=C/C(=O)Nc2ccccc2C(=O)O)c1
inhibition at 100 µM [1]: 40%

COc1ccc(/C=C/C(=O)Nc2ccccc2)cc1OC
inhibition at 100 µM [1]: 50%

COc1ccc(/C=C/C(=O)Nc2ccccc2C(N)=O)cc1OC
inhibition at 100 µM [1]: 35%

O=C(/C=C/c1ccc(O)c(O)c1)Nc1ccccc1C(=O)O
inhibition at 100 µM [1]: 90%

COc1cc(/C=C/C(=O)Nc2ccccc2C(=O)O)ccc1OC1CCC1
inhibition at 10 µM [11]: 60%
Activity (Rattus norvegicus [10]): Active

C#CCOc1cc(/C=C/C(=O)Nc2ccccc2C(=O)O)ccc1OC
inhibition at 100 µM [1]: 90%
inhibition at 30 µM [5]: 60%

C#CCCCCOc1cc(/C=C/C(=O)Nc2ccccc2C(=O)O)ccc1OC
inhibition at 100 µM [1]: 100%
inhibition at 30 µM [5]: 95%

C#CCCCOc1cc(/C=C/C(=O)Nc2ccccc2C(=O)O)ccc1OC
inhibition at 30 µM [5]: 80%
Activity (Rattus norvegicus [10]): Active

CCC#CCOc1ccc(/C=C/C(=O)Nc2ccccc2C(=O)O)cc1OC
inhibition at 100 µM [1]: 100%
inhibition at 30 µM [5]: 100%
Activity [8]: Toxic
Activity [9]: Non-toxic

CCC#CCCOc1cc(/C=C/C(=O)Nc2ccccc2C(=O)O)ccc1OC
inhibition at 100 µM [1]: 100%
inhibition at 30 µM [5]: 100%

C#CCCOc1ccc(/C=C/C(=O)Nc2ccccc2C(=O)O)cc1OC
inhibition at 100 µM [1]: 100%
inhibition at 30 µM [5]: 70%

From ChEMBL document CHEMBL1153705, “Evaluation and optimization of antifibrotic activity of cinnamoyl anthranilates” (Bioorg Med Chem Lett, 2009)
